From patent publication US20070010671A1, “Novel quinazoline derivatives and methods of treatment related to the use thereof” (priority 2003, published 2007)

Biological target: MCH receptor (Homo sapiens, UniProt Q99705)
Test: High throughput functional screening FLIPR/FDSS6000: inhibition of MCH-evoked intracellular Ca2+ changes
Assay type: cell-based
Conditions: class by percent of control at 10^-7 M or IC50
Procedure, shortened: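 Antagonism is measured as inhibition of the intracellular calcium rise triggered by 50 nM MCH in cells bearing a constitutively active, non-endogenous form of the receptor. Cells are dye-loaded with Fluo4-AM and exposed to compound for 3 min at 37° C before agonist addition.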

Row | Compound | class
1 | CCc1cccc(CC)c1NC(=S)NC[C@H]1CC[C@@H](Nc2nc(N(C)C)c3ccccc3n2)CC1 [compound 674, N-(2,6-diethylphenyl)-N′-[(cis-4-{[4-(dimethylamino)quinazolin-2-yl]amino}cyclohexyl)methyl]thiourea] | 1 (Class 1: The value of percent of control at 10^−7 M was less than 40% or the value of IC50 was less than 50 nM.)
2 | CC(C)c1cccc(C(C)C)c1NC(=O)NC[C@H]1CC[C@@H](Nc2nc(N(C)C)c3ccccc3n2)CC1 [compound 468] | 1 (Class 1: The value of percent of control at 10^−7 M was less than 40% or the value of IC50 was less than 50 nM.)
3 | COc1ccc(NC(=S)N[C@H]2CC[C@@H](Nc3nc(N(C)C)c4ccccc4n3)CC2)c([N+](=O)[O-])c1 [compound 276] | 3 (Class 3: The value of percent of control at 10^−7 M was more than 60% or the value of IC50 was more than 200 nM.)
4 | CN(C)c1nc(N[C@H]2CC[C@@H](CNC(=S)NC3CCCCC3)CC2)nc2ccccc12 [compound 585] | 3 (Class 3: The value of percent of control at 10^−7 M was more than 60% or the value of IC50 was more than 200 nM.)
5 | COc1cc(NC(=O)NC[C@H]2CC[C@@H](Nc3nc(N(C)C)c4ccccc4n3)CC2)cc(OC)c1OC [compound 520] | 3 (Class 3: The value of percent of control at 10^−7 M was more than 60% or the value of IC50 was more than 200 nM.)
6 | COc1ccc(OC)c(NC(=S)NC[C@H]2CC[C@@H](Nc3nc(N(C)C)c4ccccc4n3)CC2)c1 [compound 636] | 3 (Class 3: The value of percent of control at 10^−7 M was more than 60% or the value of IC50 was more than 200 nM.)
7 | CN(C)c1nc(N[C@H]2CC[C@@H](NC(=S)Nc3ccc([N+](=O)[O-])cc3Cl)CC2)nc2ccccc12 [compound 214] | 2 (Class 2: The value of percent of control at 10^−7 M was from 40% to 60% or the value of IC50 was from 50 nM to 200 nM.)
8 | CN(C)c1nc(N[C@H]2CC[C@@H](NC(=S)Nc3ccc(/N=N/c4ccccc4)cc3)CC2)nc2ccccc12 [compound 394] | 3 (Class 3: The value of percent of control at 10^−7 M was more than 60% or the value of IC50 was more than 200 nM.)
9 | CCc1cccc(C)c1NC(=O)NC[C@H]1CC[C@@H](Nc2nc(N(C)C)c3ccccc3n2)CC1 [compound 434, N-[(cis-4-{[4-(dimethylamino)quinazolin-2-yl]amino}cyclohexyl)methyl]-N′-(2-ethyl-6-methylphenyl)urea] | 1 (Class 1: The value of percent of control at 10^−7 M was less than 40% or the value of IC50 was less than 50 nM.)
10 | CN(C)c1nc(N[C@H]2CC[C@@H](CNC(=S)NCc3ccc4c(c3)OCO4)CC2)nc2ccccc12 [compound 604] | 2 (Class 2: The value of percent of control at 10^−7 M was from 40% to 60% or the value of IC50 was from 50 nM to 200 nM.)
11 | CCCCc1ccc(NC(=S)NC[C@H]2CC[C@@H](Nc3nc(N(C)C)c4ccccc4n3)CC2)cc1 [compound 705] | 3 (Class 3: The value of percent of control at 10^−7 M was more than 60% or the value of IC50 was more than 200 nM.)
12 | Cc1cc(C)cc(NC(=S)N[C@H]2CC[C@@H](Nc3nc(N(C)C)c4ccccc4n3)CC2)c1 [compound 260, N-(cis-4-{[4-(dimethylamino)quinazolin-2-yl]amino}cyclohexyl)-N′-(3,5-dimethylphenyl)thiourea] | 2 (Class 2: The value of percent of control at 10^−7 M was from 40% to 60% or the value of IC50 was from 50 nM to 200 nM.)
13 | Cc1cccc(C(C)(C)C)c1NC(=O)NC[C@H]1CC[C@@H](Nc2nc(N(C)C)c3ccccc3n2)CC1 [compound 515, N-(2-tert-butyl-6-methylphenyl)-N′-[(cis-4-{[4-(dimethylamino)quinazolin-2-yl]amino}cyclohexyl)methyl]urea] | 1 (Class 1: The value of percent of control at 10^−7 M was less than 40% or the value of IC50 was less than 50 nM.)
14 | CN(C)c1nc(N[C@H]2CC[C@@H](NC(=S)NCCCc3ccccc3)CC2)nc2ccccc12 [compound 264] | 3 (Class 3: The value of percent of control at 10^−7 M was more than 60% or the value of IC50 was more than 200 nM.)
15 | CN(C)c1nc(N[C@H]2CC[C@@H](CNC(=S)Nc3cc([N+](=O)[O-])ccc3Cl)CC2)nc2ccccc12 [compound 722] | 3 (Class 3: The value of percent of control at 10^−7 M was more than 60% or the value of IC50 was more than 200 nM.)
16 | Cc1cc([N+](=O)[O-])ccc1NC(=S)N[C@H]1CC[C@@H](Nc2nc(N(C)C)c3ccccc3n2)CC1 [compound 302, N-(cis-4-{[4-(dimethylamino)quinazolin-2-yl]amino}cyclohexyl)-N′-(2-methyl-4-nitrophenyl)thiourea] | 1 (Class 1: The value of percent of control at 10^−7 M was less than 40% or the value of IC50 was less than 50 nM.)
17 | CN(C)c1nc(N[C@H]2CC[C@@H](CNC(=O)NCCc3cccs3)CC2)nc2ccccc12 [compound 757] | 3 (Class 3: The value of percent of control at 10^−7 M was more than 60% or the value of IC50 was more than 200 nM.)
18 | CN(C)c1nc(N[C@H]2CC[C@@H](NC(=S)NC3CCCCCC3)CC2)nc2ccccc12 [compound 328, N-cycloheptyl-N′-(cis-4-{[4-(dimethylamino)quinazolin-2-yl]amino}cyclohexyl)thiourea] | 2 (Class 2: The value of percent of control at 10^−7 M was from 40% to 60% or the value of IC50 was from 50 nM to 200 nM.)
19 | CN(C)c1ccc(/N=N/c2ccc(NC(=S)N[C@H]3CC[C@@H](Nc4nc(N(C)C)c5ccccc5n4)CC3)cc2)cc1 [compound 391] | 3 (Class 3: The value of percent of control at 10^−7 M was more than 60% or the value of IC50 was more than 200 nM.)
20 | CN(C)c1nc(N[C@H]2CC[C@@H](CNC(=S)Nc3cccc4ccccc34)CC2)nc2ccccc12 [compound 611] | 3 (Class 3: The value of percent of control at 10^−7 M was more than 60% or the value of IC50 was more than 200 nM.)

Same assay, conditions: class by percent of control at 10^-7 M or by IC50; read-out: class

Row | IC50 [nM] | Compound
21 | > 200 | CCCCCCCOc1ccc(NC(=O)N[C@H]2CC[C@@H](Nc3nc(N(C)C)c4ccccc4n3)CC2)cc1 [compound 825]
22 | > 200 | CN(C)c1nc(N[C@H]2CC[C@@H](NC(=O)Nc3c(Br)cc(F)cc3Br)CC2)nc2ccccc12 [compound 83]
23 | > 200 | COC(=O)N[C@H]1CC[C@@H](Nc2nc(N(C)C)c3ccccc3n2)CC1 [compound 862]
24 | < 50 | Cc1cc(Cl)ccc1NC(=O)N[C@H]1CC[C@@H](Nc2nc(N(C)C)c3ccccc3n2)CC1 [compound 146]
25 | > 200 | CC(C)c1cccc(C(C)C)c1NC(=O)N[C@H]1CC[C@@H](Nc2nc(N(C)C)c3ccccc3n2)CC1 [compound 68]
26 | 50 to 200 | CN(C)c1nc(N[C@H]2CC[C@@H](NC(=S)Nc3ccc(F)cc3)CC2)nc2ccccc12 [compound 175, N-(cis-4-{[4-(dimethylamino)quinazolin-2-yl]amino}cyclohexyl)-N′-(4-fluorophenyl)thiourea]
27 | < 50 | CN(C)c1nc(N[C@H]2CC[C@@H](NC(=O)NCc3ccc(Br)cc3)CC2)nc2ccccc12 [compound 144, N-(4-bromobenzyl)-N′-(cis-4-{[4-(dimethylamino)quinazolin-2-yl]amino}cyclohexyl)urea]
28 | > 200 | CN(C)c1nc(N[C@H]2CC[C@@H](NC(=O)Nc3ccc(Cl)cc3[N+](=O)[O-])CC2)nc2ccccc12 [compound 147]
29 | > 200 | CN(C)c1nc(N[C@H]2CC[C@@H](NC(=O)Nc3ccc(F)cc3C(F)(F)F)CC2)nc2ccccc12 [compound 823]
30 | < 50 | CN(C)c1nc(N[C@H]2CC[C@@H](NC(=O)Nc3ccc4c(c3)OCO4)CC2)nc2ccccc12 [compound 120, N-1,3-benzodioxol-5-yl-N′-(cis-4-{[4-(dimethylamino)quinazolin-2-yl]amino}cyclohexyl)urea]
31 | > 200 | CN(C)c1ccc(NC(=S)NC[C@H]2CC[C@@H](Nc3nc(N(C)C)c4ccccc4n3)CC2)cc1 [compound 806]
32 | > 200 | C=C(C)CNC(=S)N[C@H]1CC[C@@H](Nc2nc(N(C)C)c3ccccc3n2)CC1 [compound 184]

Row | Compound | IC50 [nM]
33 | COc1ccccc1OC(=O)NC[C@H]1CC[C@@H](Nc2nc(N(C)C)c3ccccc3n2)CC1 [compound 871] | > 200

Same assay, conditions: class by percent of control at 10^−7 M or by IC50; read-out: class

Row | IC50 [nM] | Compound
34 | < 50 | CN(C)c1nc(N[C@H]2CC[C@@H](C(=O)NCc3ccccc3)CC2)nc2ccccc12 [Example 1135, cis-N-benzyl-4-{[4-(dimethylamino)quinazolin-2-yl]amino}cyclohexanecarboxamide]
35 | 50 to 200 | CN(C)c1nc(N[C@H]2CC[C@@H](CNC(=O)[C@@H](O)c3cccc(Cl)c3)CC2)nc2ccccc12 [Example 1100, (2S)-2-(3-chlorophenyl)-N-[(cis-4-{[4-(dimethylamino)-quinazolin-2-yl]amino}cyclohexyl)methyl]-2-hydroxyacetamide]
36 | < 50 | COc1cc(OC)cc(C(=O)NC[C@@H]2CC[C@H](Nc3nc(N(C)C)c4ccccc4n3)C2)c1 [Example 1120, N-[((1R,3S)-3-{[4-(dimethylamino)quinazolin-2-yl]amino}cyclopentyl)methyl]-3,5-dimethoxybenzamide]
37 | 50 to 200 | CN(C)c1nc(N[C@H]2CC[C@@H](CNC(=O)Nc3ccc(Cl)cc3)CC2)nc2ccccc12 [Example 1023, N-(4-chlorophenyl)-N′-[(cis-4-{[4-(dimethylamino)quinazolin-2-yl]amino}cyclohexyl)methyl]urea]
38 | 50 to 200 | COc1ccccc1OCC(=O)N[C@H]1CC[C@@H](Nc2nc(N(C)C)c3ccccc3n2)CC1 [Example 1082, N-(cis-4-{[4-(dimethylamino)quinazolin-2-yl]amino}cyclohexyl)-2-(2-methoxyphenoxy)acetamide]
39 | > 200 | CN(C)c1nc(N[C@H]2CC[C@@H](CNC(=O)C(O)c3cc(F)ccc3F)CC2)nc2ccccc12 (relative stereo) [Example 1094, 2-(2,5-difluorophenyl)-N-[(cis-4-{[4-(dimethylamino)quinazolin-2-yl]amino}cyclohexyl)methyl]-2-hydroxyacetamide]
